For one compound, Emax and solubility results are on record in patent US20240360194A1, “New Peptides as Potent and Selective GIP Receptor Agonists” (Sanofi, priority 2021, published 2024).

≈ marks a conversion by molar mass, not a printed value. Numbered stars: 1 amine (or outer) side, 2 acyl side, 3 side chain; on linkers, the order of the positions; unused ones are H or OH. Square brackets hold non-standard residues; d marks the D form. Side chains are listed from the residue outwards. Peptide text beside a SMILES is read from it. * marks the point of attachment. ξ: configuration not given here. C18 diacid = O=C(O)CCCCCCCCCCCCCCCCC(=O)*; γGlu = O=C(O)[C@H](CCC(=O)[*:2])N[*:1]; ξIva = CCC(C)(N)C(=O)O; AEEA = NCCOCCOCC(=O)O; Aib = CC(C)(N)C(=O)O

One series has as its target T1, human GIP receptor (Homo sapiens, UniProt P48546).
T1 construct: human adipocytes endogenously expressing the human GIP receptor; host or cells: human preadipocytes (Lonza) differentiated to adipocytes
T1 sequence (P48546 22-466): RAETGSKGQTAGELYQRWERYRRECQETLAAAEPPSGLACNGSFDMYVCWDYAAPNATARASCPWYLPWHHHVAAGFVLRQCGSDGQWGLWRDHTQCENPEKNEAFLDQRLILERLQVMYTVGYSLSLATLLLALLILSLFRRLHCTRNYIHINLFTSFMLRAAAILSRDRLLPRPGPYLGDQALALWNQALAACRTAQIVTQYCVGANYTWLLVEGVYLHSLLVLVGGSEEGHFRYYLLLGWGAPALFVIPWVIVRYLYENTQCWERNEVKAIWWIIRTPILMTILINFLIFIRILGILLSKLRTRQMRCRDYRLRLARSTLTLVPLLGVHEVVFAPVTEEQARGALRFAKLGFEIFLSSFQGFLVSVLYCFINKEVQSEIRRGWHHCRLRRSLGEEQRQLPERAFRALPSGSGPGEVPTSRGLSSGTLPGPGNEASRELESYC
The series can be described thus: In vitro cellular cAMP assay for GIP receptor efficacy (human adipocytes). Format: cell-based. The settings on record: read-out: hGIPR Emax. As to the method:
For this, one vial of human preadipocytes (˜10^6 cells; Lonza) was thawed in a T-75 cell culture dish. The cells were cultivated at 37° C., 5% CO2, 95% humidity in Preadipocyte Growth Medium with Supplement Mix from Promo Cell.
After 3 days, the cells were washed with PBS and 1.5 ml Trypsin, incubated for 4 min, then resuspended in medium, centrifugated for 10 min @ 300 rcf RT, resuspended again and distributed to four T-75 cell culture dishes. Again, the cells were cultivated at 37° C., 5% CO2, 95% humidity.
After 5 days, the cells were washed with PBS and 1.5 ml Trypsin, incubated for 4 min, then resuspended in medium, centrifugated for 10 min @ 300 rcf RT, resuspended again and sawn in T-75 dishes (2.5×10^6 cells per dish) in 15 ml Differentiation medium each.
The differentiation medium had the following composition: DMEM (Gibco), Ham's F10 (Gibco), 15 mM HEPES (Gibco), 3% FCS (PAA), 33 μM biotin (Sigma-Aldrich), 17 μM Pantothenate (Sigma-Aldrich), 0.1 μM human insulin (Sigma-Aldrich), 1 μM dexamethason (Sigma-Aldrich), 0.1 μM PPARgamma agonist (#R2408, Sigma-Aldrich), 0.6×Anti-Anti (#15240, ThermoFisher), 200 μM IBMX (AppliChem), and 0.01 μM L-thyroxine (Sigma-Aldrich).
After 6 days of differentiation, 5000 cells per well were dispensed on a 96-well plate (#CLS3694 from Corning®, Sigma-Aldrich). For measurement of cAMP generation, 25 μL of test compound was added to each well of the 96-well plate, followed by incubation for 30 min at room temperature.
The cAMP generated following test compound stimulation was determined using a kit from Cisbio Corp. based on HTRF (Homogenous Time Resolved Fluorescence). The cAMP assay was performed according to manufacturer's instructions (Cisbio).
The cAMP content of cells was determined using a kit from Cisbio Corp. based on HTRF (Homogenous Time Resolved Fluorescence).
After addition of HTRF reagents diluted in lysis buffer (kit components), the plates were incubated for 1 h, followed by measurement of the fluorescence ratio at 665/620 nm.
(Changes in cAMP serve as a functional read-out for many G protein-coupled receptors.)

Series [1] is described as follows: Solubility assessment (UHPLC-UV of supernatant, target 10 mg/ml). The conditions noted are these: pH 7.4, Soluble amount. It counts as physicochemical. As to the method: Prior to the solubility measurement of a peptide batch, its purity was determined through UHPLC/MS.
Therefore, solutions from solid samples were prepared in a buffer system with a concentration of 10 mg/ml compound based on the previously determined % purity: • Solubility buffer system A) 100 mM phosphate buffer pH 7.4 • Solubility buffer system B) 8 mM phosphate buffer pH 7.4, 14 mg/ml propylene glycol, 5.5 mg/ml phenol • Solubility buffer system C) 100 mM phosphate buffer pH 7.4, 2.7 mg/ml m-cresol
UHPLC-UV was performed after 1 h of gentle agitation and storage at 5° C. overnight (24 h) from the supernatant, which was obtained after 15 min of centrifugation at 2500 RCF (relative centrifugal acceleration).
The different UV extinction coefficients of sample and reference peptide were calculated based on the different amino acid sequences and considered in the concentration calculation.
The analytical method used was Analytical UHPLC Method A.
Peptide samples were prepared in solubility buffer system A or C and solubility was assessed as described in Methods.

Consider `CC[C@H](C)[C@H](NC(=O)[C@H](Cc1ccccc1)NC(=O)[C@H](CCC(=O)O)NC(=O)[C@H](CCC(=O)O)NC(=O)[C@H](CCC(N)=O)NC(=O)[C@H](Cc1c[nH]cn1)NC(=O)[C@@H](NC(=O)[C@H](CCCNC(=N)N)NC(=O)[C@H](CC(=O)O)NC(=O)[C@H](CCCCNC(=O)COCCOCCNC(=O)COCCOCCNC(=O)CC[C@H](NC(=O)CCCCCCCCCCCCCCCCC(=O)O)C(=O)O)NC(=O)C(C)(C)NC(=O)[C@@H](NC(=O)[C@H](CO)NC(=O)[C@H](CC(C)C)NC(=O)[C@H](CC(=O)O)NC(=O)[C@H](CO)NC(=O)[C@@H](NC(=O)C(C)(CC)NC(=O)[C@@H](NC(=O)CNC(=O)[C@H](CCC(=O)O)NC(=O)C(C)(C)NC(=O)[C@@H](N)Cc1ccc(O)cc1)[C@@H](C)O)[C@@H](C)CC)[C@@H](C)CC)[C@@H](C)CC)C(=O)N[C@@H](CCC(=O)O)C(=O)N[C@@H](Cc1c[nH]c2ccccc12)C(=O)N[C@@H](CC(C)C)C(=O)N[C@@H](CC(C)C)C(=O)N[C@@H](C)C(=O)N[C@@H](CCC(N)=O)C(=O)NCC(=O)N1CCC[C@H]1C(=O)N[C@@H](CO)C(=O)N[C@@H](CO)C(=O)NCC(=O)N[C@@H](C)C(=O)N1CCC[C@H]1C(=O)N1CCC[C@H]1C(=O)N1CCC[C@H]1C(=O)N[C@@H](CO)C(N)=O` (stereo partly drawn) [SEQ ID NO: 24, H2N-Y-Aib-E-G-T-Iva-I-S-D-L-S-I-Aib-K[{AEEA}2-gGlu-C18OH]-DRIHQEEFIEWLLAQGPSSGAPPPS-NH2] (H-Y[Aib]EGT[ξIva]ISDLSI[Aib]K([AEEA-AEEA-γGlu-C18 diacid])DRIHQEEFIEWLLAQGPSSGAPPPS-NH2), for which the maximum response (Emax) (usually the maximal effect, on the per cent scale that the assay sets) at human GIP receptor turned out to be 100%. Besides, the solubility (usually the dissolved amount per volume that the medium holds) in series [1] was determined as 7800 µg/mL (≈ 1570 µM).
